# Measured values taken from ChEMBL document CHEMBL1150926, “A new meroditerpenoid dimer from an undescribed Philippine marine sponge of the genus Strongylophora” (J Nat Prod, 1998).
# Active and inactive are the calls of the source. The rule behind the calls is not given here.
# Legend:
# Cladosporium cucumerinum [1] = assay: Antifungal activity against Cladosporium cucumerinum at 0.80 umol after 2 days; format: functional
# [2] = Toxicity against Artemia salina assessed as mortality after 48 hrs; format: organism-based; conditions: in vivo
# Cladosporium cucumerinum [3] = assay: Antifungal activity against Cladosporium cucumerinum at 0.10 umol after 2 days; format: functional
# Spodoptera littoralis [4] = assay: Insecticidal activity against Spodoptera littoralis larvae assessed as inhibition of larval growth treated in artificial diet after 6 days; format: functional, organism-based
# Spodoptera littoralis [5] = assay: Insecticidal activity against Spodoptera littoralis larvae assessed as inhibition of larval growth at 530 ppm treated in artificial diet after 6 days; format: functional; design: scale not given: the % may be the effect or the level left
# Bacillus subtilis = assay: Antibacterial activity against Bacillus subtilis 168 at 100 ug/disk after 24 hrs by agar plate diffusion method; format: functional, organism-based; conditions: subsp. subtilis str. 168
# Micrococcus luteus = assay: Antibacterial activity against Micrococcus luteus at 100 ug/disk after 24 hrs by agar plate diffusion method; format: functional
# Salmonella typhi = assay: Antibacterial activity against Salmonella typhii at 100 ug/disk after 24 hrs by agar plate diffusion method; format: functional, Salmonella enterica subsp. enterica serovar Typhi
# Escherichia coli = assay: Antibacterial activity against Escherichia coli ATCC 25922 at 100 ug/disk after 24 hrs by agar plate diffusion method; format: functional, organism-based
# Staphylococcus aureus = assay: Antibacterial activity against Staphylococcus aureus ATCC 25923 at 100 ug/disk after 24 hrs by agar plate diffusion method; format: functional, organism-based
SMILES,Activity (Cladosporium cucumerinum [1]),LC50 at 48 h [2] [µg/mL],Activity (Cladosporium cucumerinum [3]),inhibition zone (IZ) (Cladosporium cucumerinum [1]) [mm],EC50 (Spodoptera littoralis [4]) [ppm],Activity (Spodoptera littoralis [5]) [%],Activity (Bacillus subtilis),Activity (Micrococcus luteus),inhibition zone (IZ) (Cladosporium cucumerinum [3]) [mm],"zone of inhibition at 100 µg/disc (Salmonella typhi; Salmonella enterica, read-out: IZ) [mm]",Activity (Escherichia coli),Activity (Staphylococcus aureus),zone of inhibition at 100 µg/disc (Micrococcus luteus; read-out: IZ) [mm],Activity (Salmonella typhi; Salmonella enterica subsp. enterica serovar Typhi)
C[C@]12CC[C@H]3[C@@](C)(CCC[C@@]3(C)C(=O)O)[C@@H]1CC[C@@]1(C)Oc3c(O)ccc(Oc4ccc5c(c4)C[C@H]4[C@]6(C)CC[C@@H]7[C@](C)(CCC[C@]7(C)C(=O)O)[C@H]6CC[C@]4(C)O5)c3C[C@H]21 [DISTRONGYLOPHORINE],inactive,10.5,inactive,–,–,–,–,–,–,–,–,–,–,–
C[C@]12CCC[C@](C)(C(=O)O)[C@@H]1CC[C@]1(C)[C@@H]2CC[C@]2(C)Oc3ccc(O)cc3C[C@@H]12 [Strongylophorin-3],–,59.2,–,15,69,90,inactive,inactive,10,9,inactive,inactive,–,–
C[C@@]12CC[C@@H]3[C@]4(CCC[C@@]3(C)C(=O)OC4)[C@H]1CC[C@]1(C)Oc3ccc(O)cc3C[C@@H]21 [strongylophorine-2],inactive,534,inactive,–,–,–,inactive,–,–,–,inactive,inactive,7,inactive
CC(=O)[C@@]1(C)CCC[C@]2(C)[C@H]3CC[C@]4(C)Oc5ccc(O)cc5C[C@H]4[C@]3(C)CC[C@H]21 [strongylophorine-4],inactive,143,inactive,–,–,–,–,–,–,–,–,–,–,–
